How the values were obtained:
yeast tps1Δ strain = assay: Growth (rescue) of the yeast tps1Δ strain on galactose with or without glucose; assay type: cell-based, S. cerevisiae; details: 2.5 mM glucose
Method: Growth curves were made by measuring OD595 in a 96-well plate using the Multiskan™ FC Microplate Photometer (Thermo Fisher Scientific). Typically, for tps1Δ rescue experiments, cells were (pre)grown in Complete Synthetic medium containing 110 mM galactose. Compounds were always added 10 min prior to glucose addition to ensure maximal interaction between the cells and compounds. Cells originating from the preculture were harvested, washed in medium without sugar, after which they were resuspended to an OD of 0.1 in 200 µL of the appropriate medium. At least three technical replicates were included per condition. OD595 was measured at 30°C every 30 min with a 10-min shaking interval.

[1] = tested on: A549 lung adenocarcinoma cells; assay: Proliferation of A549 lung adenocarcinoma cells; assay type: cell-based, human; details: for Selected from primary screen for growth inhibition of A549 cells at 50 µM: RPMI 1 mM glucose; for Selected for having an IC50 ratio (10 mM glucose : 1 mM glucose) of A549 growth higher than WBC-A: ratio of IC50 on 10 mM and 1 mM glucose, compared to WBC-A
Method: For both adherent A549 and MCF10A H-RAS^V12 cell lines, growth curves were established using the IncuCyte® ZOOM technology. By collecting phase contrast images, the IncuCyte® software provides a calculated confluency percentage from which growth curves can be deducted. The cell number/density was measured by calculating the confluency of phase objects (cells) sticking on the bottom of the well. Cells were seeded at a density of 1000 - 1500 cells/well in a Nunc-Edge™ 96-well plate (Thermo Fisher Scientific) and growth was typically measured over 3 to 5 days. For the measurement of apoptosis induction using the MCF10A H-RAS^V12 cell line, the IncuCyte® Caspase-3/7 green dye was added to the medium in the recommended concentration at the beginning of the growth curve experiment. Apoptosis was detected by taking fluorescent images by excitation at 488 nm followed by IncuCyte® software analysis. Cell growth of the KMS-12-PE multiple myeloma cell line, which grows in suspension, was measured by manual cell counting. Cells were initially seeded at a density of 10^4 cells/well and incubated for 4 days after which the cell number was counted. For all cell lines, the same medium used for pregrowth was also used for the growth curve experiment, albeit with different glucose concentrations depending on the experimental design. With compound administration, the final concentration of DMSO never exceeded 0.1%. Typically, at least four technical repeats were included per condition.

[2] = tested on: 2-deoxyglucose uptake in A549 lung adenocarcinoma cells; assay: 2-deoxyglucose uptake in A549 lung adenocarcinoma cells; assay type: cell-based, human
Method: Zero-trans glucose uptake in A549 cells was approximated by measuring the uptake of [1,2-^3H]2-deoxyglucose. For this purpose, A549 cells were pregrown in RPMI medium containing 10 mM glucose in a 24-well plate to a cell density of around 100,000 cells/well. Prior to adding radioactive label, cells were gently washed twice in Krebs-Ringer-HEPES buffer (50 mM HEPES pH 7.4, 137 mM NaCl, 4.7 mM KCl, […], 1.3 mM MgSO4 and 0.1% w/v BSA) at 30°C to remove any residual sugar. RPMI medium without sugar containing the compound intended for treatment, was added to the cells for 15 min at 37°C to allow adequate interaction of the cells with the compound. The uptake measurement was initiated by adding an equal volume of medium containing radiolabeled 2DG. After 3 - 4 min incubation at 37°C, medium was aspirated and cells were gently washed three times with ice-cold Krebs-Ringer-HEPES buffer. Cells were lysed by adding 200 µL of ice-cold 0.1 M NaOH solution and incubating the plate for 10 min at 37°C. Cell lysates were transferred to scintillation vials for subsequent scintillation counting. For blank measurements, cells were incubated with 50 µM Cytochalasin B prior to the uptake measurement.

[3] = tested on: A549 lung adenocarcinoma cells; assay: Glucose consumption and lactate production over 8 h, A549; assay type: cell-based, human; details: A549, 25 µM, 1 mM glucose
Method: The influence of WBC compounds on glucose consumption over a longer time period was studied in the A549 adenocarcinoma and KMS-12-PE multiple myeloma cell lines. As such, different parameters needed to be optimized depending on whether cells were adherent or in suspension. As such, A549 cells were incubated at 125,000 cells/well in a 24-well plate in 300 µL RPMI medium for 8 h. For the KMS-12-PE cell line, 100,000 cells/well were incubated in 100 µL RPMI medium in a 96-well plate for 8 h. Medium was collected, spun down and HPLC-analyzed for measuring glucose and lactate levels. Metabolite levels were corrected for cell number, which always varied little over the span of 8 h. For every condition, at least 4 technical repeats were included.

female NMRI-nu mice = assay: In vivo toxicity and tolerability in mice
Method: Warbicin ® in vivo toxicity and tolerability was examined by subjecting female NMRI-nu mice (12 weeks old) to daily intraperitoneal injection of either WBC-A, WBC-15C, WBC-4C or WBC-11C. Compounds were dosed at either 5 mg/kg, 10 mg/kg or 20 mg/kg over a period of 20 days. Three mice were used per condition. To evaluate toxicity, change in body weight was registered daily. As a humane endpoint, mice that lost more than 20% of their original body weight were prematurely sacrificed. In addition, liver function was examined by measuring the ratio of the AST to ALT enzyme activities (AbCam ab105135, ab105134) in sera samples collected at the end of the experiment. Furthermore, the blood glucose level in mice sera was determined using the colorimetric GOD-PAP method. Due to their considerable hydrophobicity, the compounds were dissolved in a sterilized 1xPBS, 5% DMSO and 5% Tween-80 solution until a homogenous suspension was obtained that could be administered in a reproducible way.

[4] = Solubility of compound stocks; assay type: physicochemical; details: 100% DMSO
Method: WBC-A and the complete structural analog library ( Supplementary Table 2 ) were purchased from different vendors, i.e. Enamine (n = 185), Life Chemicals (n = 10), LabNetwork (n = 4) and Uorsy (n = 4). WBC compounds in general are very insoluble in aqueous solutions, challenging their solubilization. Throughout this work, WBC compounds were always stock aliquoted at 50 mM concentration in 100% DMSO. In many cases, gentle sonication and heating up to 37°C was necessary to completely solubilize the compound stocks. Whereas WBC-A, -15C, -4C and -11C could be dissolved at 50 mM, some structural analogs remained in smooth or rough suspension, regardless of the concentration. Even though it is recommended to aliquot compound stocks, no significant decrease in compound strength by repeated freeze and thaw cycles in DMSO was observed.

[5] = tested on: hxk2Δ hxk1Δ GLK1 yeast cells; assay: Sugar uptake in hxk2Δ hxk1Δ GLK1 yeast cells; assay type: cell-based, S. cerevisiae; details: 250 µM CCCP or 50 µM WBC-A 10 min prior; 100 mM maltose with the tracer
Method: (§1) Zero-trans uptake of radioactively labeled [U-^14C]glucose, [U-^14C]fructose or [U-^14C]galactose by S. cerevisiae cells was determined in accordance with previous studies ([45], [75]). Cells were grown on different carbon sources depending on the experiment. For measuring glucose uptake activity in the tps1Δ and tps1Δ hxtΔ strains, cells were grown on YP medium containing 325 mM glycerol (measurement of 10 s). Typically, for compound characterization and kinetic studies in wild type and tps1Δ strains, cells were (pre)grown on Complete Synthetic medium supplemented with 110 mM galactose (measurement of 10 s). In the experiments on the influence of hexokinase activity on the sugar uptake rate, the measurement duration was shortened to 5 s and cells were always grown on YP medium containing 325 mM glycerol and 430 mM ethanol. After harvesting, cells were washed twice with ice-cold 25 mM MES-buffer pH 6, and resuspended in their respective medium without sugar to a final concentration of 45 mg (wet weight)/mL. The amount of added tracer was estimated to give a response close to at least 1000 counts per min in order to adequately counter background noise. Cells were first preincubated for 10 min at 30°C with the compound to acclimate the cells to the temperature and to allow adequate interaction with the compound prior to uptake. Next, hexose sugar was mixed with the cell suspension, which was then incubated at 30°C for 5 or 10 s, depending on the experiment, after which the cells were rapidly filtered over a glass microfiber filter (Whatman GF/C) and washed three times with ice-cold dH2O. The loaded filter was transferred to a scintillation vial containing 3 mL liquid scintillation cocktail (Ultima-Flo M, Perkin Elmer) and counted using the Hidex 300 SL. Three blank measurements per strain were typically included to account for background signal, for which the cells were first quenched before adding the radioactive label.

[6] = tested on: glucose uptake by wild type yeast cells; assay: Zero-trans uptake of radioactive glucose in wild type yeast cells; assay type: cell-based, S. cerevisiae
Method: as §1

[7] = tested on: glucose uptake by tps1Δ yeast cells; assay: Zero-trans uptake of radioactive glucose in tps1Δ yeast cells; assay type: cell-based, S. cerevisiae; details: tps1∆ cells, 2.5 mM glucose; read-out: IC50 values for 2.5 mM glucose uptake in tps1∆ cells
Method: as §1

| Structure (SMILES) | Rescue of the tps1∆ strain on 2.5 mM glucose at 100 µM (yeast tps1Δ strain) | Selected from primary screen for growth inhibition of A549 cells at 50 µM [1] | Selected for having an IC50 ratio (10 mM glucose : 1 mM glucose) of A549 growth higher than WBC-A [1] | IC50 [7] | Minimal rescue concentration for growth of tps1∆ cells on 2.5 mM glucose (yeast tps1Δ strain) | further results |
| --- | --- | --- | --- | --- | --- | --- |
| Cc1nc(NCC(=O)Nc2ccccc2Br)c2c(-c3cccs3)csc2n1 [WBC-15C] | No | Yes | Higher IC50 ratio and confirmed |  |  | relative potency in reducing maximal growth rate of A549 cells ([1]; 1 mM glucose, 6.25-50 µM): least potent; type of inhibition of 2-deoxyglucose uptake (Lineweaver-Burk) [2]: competitive; Ki ([2]; read-out: Ki for 2-deoxyglucose uptake (Dixon plot)): 33.8 µM; inhibition of glucose consumption and lactate production [3]: inhibited glucose consumption and lactate production; abnormalities / toxic effects in liver and other organs at autopsy (female NMRI-nu mice; daily i.p., 20 days, toxic effects at 20 mg/kg WBC-15C and at 20 and 10 mg/kg WBC-11C, not at lower doses): toxic effects were seen in the liver and other organs; adipose tissue at autopsy (female NMRI-nu mice; nude mice, daily i.p., 5, 10 and 20 mg/kg, 20 days, visual inspection vs vehicle): adipose tissue was also observed in between the intestines; loss in body weight (female NMRI-nu mice; nude mice, daily intraperitoneal injection, 5, 10 and 20 mg/kg, 20 days): no significant loss in body weight; AST/ALT ratio vs vehicle (female NMRI-nu mice; sera after 20 days, 5, 10, 20 mg/kg daily i.p.): No significant difference; blood glucose level vs vehicle (female NMRI-nu mice; sera post-mortem after 20 days, 5, 10, 20 mg/kg daily i.p.): No significant difference; concentration at which compound could be dissolved [4]: ≥ 50000 µM |
| N#CC(C#N)=NNc1cccc(Cl)c1 [CCCP, reference compound] |  |  |  |  |  | fructose uptake at tracer concentration [5]: not that of fructose; glucose uptake at tracer concentration [5]: lowered the glucose uptake rate |
| CCN(C(=O)CSc1nc(C)nc2scc(-c3cccs3)c12)C1CCS(=O)(=O)C1 (stereo not drawn) [WBC-2C] | Yes | Yes | Lower IC50 ratio | 2 µM | 1.562 µM | type of inhibition of glucose uptake (Lineweaver-Burk) [6]: mixed type of inhibition; IC50 ([6]; radioactive glucose, 10 s, read-out: IC50 for inhibition of 2.5 mM glucose uptake): 1.98 µM; Ki ([6]; read-out: Ki (Dixon plot) for glucose uptake): 1.45 µM |
| Cc1nc(SCCO)c2c(-c3cccs3)csc2n1 [WBC-47A] | Yes | Yes | Lower IC50 ratio | 15.6 µM | 6.25 µM |  |
| Cc1nc(Sc2nnc(C(F)(F)F)n2C)c2c(-c3cccs3)csc2n1 [WBC-54C] | Yes | Yes | Lower IC50 ratio | 64.7 µM | 50 µM |  |
| Cc1nc(Sc2nnc(-c3cccnc3)n2C)c2c(-c3cccs3)csc2n1 [WBC-23A] | Yes | Yes | Lower IC50 ratio | 8.6 µM | 25 µM |  |
| Cc1nc(SCC(N)=O)c2c(-c3cccs3)csc2n1 [WBC-14A] | Yes | No |  | 27.9 µM | 25 µM |  |
| Cc1nc(Sc2nnc(-c3ccncc3)n2C)c2c(-c3cccs3)csc2n1 [WBC-26A] | Yes | Yes | Lower IC50 ratio | 5.35 µM | 25 µM |  |
| Cc1nc(SCC(=O)NC(C)(C)C)c2c(-c3cccs3)csc2n1 [WBC-32B] | Yes | Yes | Lower IC50 ratio | 30.3 µM | 12.5 µM |  |
| Cc1nc(Sc2nnc3n2CCC(CN=[N+]=[N-])CC3)c2c(-c3cccs3)csc2n1 (stereo not drawn) [WBC-87C] | Yes | Yes | Lower IC50 ratio | 11.1 µM | 12.5 µM |  |
